# Measurements: patent US7521463B2, “Immunomodulatory compounds” (University of Maryland, Baltimore, priority 2000, dated 2009)
# “Also recorded” adds a separate entry of the source.
# Columns and labels:
# [1] = system: OKT-3 activated Jurkat cells; test: Jurkat cell activation-dependent phosphorylation (OKT-3, anti-phosphotyrosine western blot); format: cell-based; conditions: for effect on tyrosine phosphorylation of Jurkat cellular proteins, dose response: OKT-3, 0.1, 1, 10 and 100 μM; for effect on cellular tyrosine phosphorylation stimulated by OKT-3: compound 100 μM, 5 min at 37° C.
# Experimental: Phosphorylation in Jurkat cells activated by the monoclonal antibody, OKT-3, is correlated with T-cell activation.
# A. Compounds are tested for their effect on OKT-3 activated Jurkat cells. OKT-3 is a monoclonal antibody against CD3-ε chain. Treatment of Jurkat cells with OKT-3 antibody for 5 min at 37° C. activates Jurkat cells and induces tyrosine phosphorylation of several cellular proteins. […] Experiments are carried out to determine if compounds of the invention, or known compounds which can serve as standards, affect cellular tyrosine phosphorylation stimulated by OKT-3 in Jurkat cells.
# The assay is performed as follows: Jurkat cells (1×10^6 cells) in RPMI 1640 supplemented with 10% fetal bovine serum (FBS) are treated with OKT-3 antibody (0.2 μg) and compounds (100 μM) for 5 min at 37° C. Cultures are immediately placed on ice after the incubation period, washed 3 times with cold PBS and lysed in 20 μl of SDS-sample buffer. Samples are briefly sonicated and boiled for 5 min and applied to SDS-PAGE (12% gel). After SDS-PAGE, proteins are blotted onto Immobilon P membrane (Millipore) for western blot analysis. Membranes are blocked overnight with 5% dried milk in TBST (Tris buffered saline containing 1% triton X-100). After washing, blots are incubated with monoclonal anti-phosphotyrosine antibody for 1 h in TBST followed by 1 hr incubation with horseradish peroxidase (HRP)-conjugated goat anti-mouse IgG. Blots are developed using enhanced chemiluminescence (ECL, Pierce).
# The assay is performed as follows: Western blot analyses using anti-phosphotyrosine antibody are performed. Compounds (e.g., inventive compounds I′, II′ and III′) are added at concentrations of 0.1, 1, 10 and 100 μM. Cells are cultured as above.
# [2] = system: Jurkat cells; test: Effect on Jurkat cell viability / growth; format: cell-based; conditions: 10 μM
# Experimental: Compounds can be tested to determine whether they are cytotoxic or cytostatic. To test whether a compound which inhibits OKT-3-mediated stimulation of tyrosine phosphorylation has a cytotoxic effect on Jukat cells, its effect on the growth of Jurkat cells is tested.
# [3] = system: IL-2 production in Jurkat cells; test: Inhibition of IL-2 production in OKT-3 treated Jurkat cells (RIA); format: cell-based, human
# Experimental: Interleukin 2 (IL-2) is an autocrine growth factor for T cells, the production of which requires T cell antigen receptor and co-receptor generated activation signals in normal T cells. The production of IL-2 is a hallmark of T cell activation signaling, leading to the clonal expansion of antigen-specific T cell clones. In Jurkat cells, treatment of cells with OKT-3 leads to the production of IL-2. […] For example, about 50% inhibition of IL-2 production is observed when cells are treated with 10 μM compound III′ at the time of OKT-3 treatment. […] Unlike the complete inhibition of OKT-3 induced tyrosine phosphorylation, the inhibition of IL-2 production by compound III′ is partial.
# The assay is performed as follows: Jurkat cells (1×10^6 cells) are treated with OKT-3 antibody (0.2 μg) in the presence or absence of compounds (e.g., Compound III′) (0.1, 1 and 10 μM) for 24 h in RPMI 1640+10% FBS. At the end of the incubation period, culture media are harvested and assayed for human IL-2 by RIA. Cells treated with OKT-3 only and PMA+Ionomycin serves as a positive control. Untreated cells serve as a negative control. IL-2 production is not detected in untreated cells. Cells treated with 10 μM of Compound III′ are shown to inhibit IL-2 production by 44%. The standard deviation is 0.23 pg/ml.
# [4] = target: p56^lck (Homo sapiens, UniProt P06239); test: p56^lck kinase activity (general statement); format: biochemical
# Chain of p56^lck (P06239 whole entry): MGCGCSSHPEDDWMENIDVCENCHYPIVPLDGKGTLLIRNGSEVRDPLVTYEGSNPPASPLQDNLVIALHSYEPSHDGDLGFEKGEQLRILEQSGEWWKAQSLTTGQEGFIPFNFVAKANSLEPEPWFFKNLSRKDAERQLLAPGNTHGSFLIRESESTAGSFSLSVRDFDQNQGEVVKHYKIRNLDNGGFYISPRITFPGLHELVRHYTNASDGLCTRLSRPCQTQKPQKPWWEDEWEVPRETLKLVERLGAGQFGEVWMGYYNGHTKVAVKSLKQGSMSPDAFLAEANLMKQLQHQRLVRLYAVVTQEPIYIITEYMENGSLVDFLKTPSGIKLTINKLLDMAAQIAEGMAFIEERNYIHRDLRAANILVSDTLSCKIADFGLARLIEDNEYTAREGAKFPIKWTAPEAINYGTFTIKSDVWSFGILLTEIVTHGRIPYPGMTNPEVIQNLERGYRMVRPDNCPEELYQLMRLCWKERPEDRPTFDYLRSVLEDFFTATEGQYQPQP
effect on p56^lck kinase activity [4],SMILES,"effect on tyrosine phosphorylation at the lowest concentration ([1]; OKT-3, 0.1 μM)","effect on tyrosine phosphorylation of Jurkat cellular proteins, dose response [1]",effect on cellular tyrosine phosphorylation stimulated by OKT-3 [1],cytotoxic effect on Jurkat cells [2],effect on the growth of Jurkat cells [2],time after addition of compound at which Jurkat cells resume normal rate of growth [2],"inhibition at 10 µM ([3]; Homo sapiens, Jurkat, 24 h, 10 μM, at the time of OKT-3 treatment)","effect on IL-2 production at lower concentrations ([3]; lower concentrations (0.1, 1 μM), OKT-3, 24 h)"
inhibits p56^lck kinase activity,O=C(Sc1ccccn1)c1ccc(Oc2ccc(Cl)cc2Cl)c([N+](=O)[O-])c1 [Compound III′],inhibits tyrosine phosphorylation,completely inhibits tyrosine phosphorylation of cellular proteins,inhibitory activity,no cytotoxic effect is observed,some cytostatic effect,24 h,~50%,no observable effect
activates p56^lck kinase activity,CC(=O)OCc1cccc2cccc(Sc3ccccc3C(=O)O)c12 [Compound I′],–,significantly stimulate tyrosine phosphorylation of Jurkat cellular proteins in a dose-dependent manner; also recorded: dose-dependent stimulation of tyrosine phosphorylation,stimulatory activity,–,–,–,–,–
